The source made the active and inactive calls. The rule behind the calls is not given here.
Columns and labels:
[1] = system: OVCAR-3; test: Antiproliferative activity against human OVCAR-3 cells assessed as inhibition of cell growth incubated for 72 hrs by MTT assay; assay type: functional, cell-based; conditions: OVCAR-3, 72 h
[2] = system: SK-OV-3; test: Inhibition of colony formation in human SK-OV-3 cells assessed as reduction in colony number incubated for 10 days by crystal violet staining based analysis; assay type: functional, cell-based; conditions: time 10.0 day
[3] = system: A2780; test: Induction of ROS production in human A2780 cells assessed as increase in fluorescence intensity incubated for 24 hrs by DCFH-DA staining based flow cytometry; assay type: functional, cell-based
[4] = system: SK-OV-3; test: Antiproliferative activity against human SK-OV-3 cells assessed as decrease in ALDH positive cells at 0.2 uM incubated for 24 hrs by ALDEFLUOR staining based flow cytometry (reference value: 3.83 %); assay type: functional; set-up: scale not given: the % may be the effect or the level left
[5] = system: SK-OV-3; test: Antiproliferative activity against human SK-OV-3 cells assessed as decrease in ALDH positive cells at 0.4 uM incubated for 24 hrs by ALDEFLUOR staining based flow cytometry (reference value: 3.83 %); assay type: functional; set-up: scale not given: the % may be the effect or the level left
[6] = target: Signal transducer and activator of transcription 3 (Homo sapiens) (UniProt P40763); test: Inhibition of STAT3 in human A2780 cells assessed as downregulation of STAT3 phosphorylation at Tyr705 residue in nuclei at 0.2 uM incubated for 24 hrs by Hoechst33342 staining based immunofluorescence assay; assay type: cell-based
Sequence of Signal transducer and activator of transcription 3 (Homo sapiens) (P40763 whole entry): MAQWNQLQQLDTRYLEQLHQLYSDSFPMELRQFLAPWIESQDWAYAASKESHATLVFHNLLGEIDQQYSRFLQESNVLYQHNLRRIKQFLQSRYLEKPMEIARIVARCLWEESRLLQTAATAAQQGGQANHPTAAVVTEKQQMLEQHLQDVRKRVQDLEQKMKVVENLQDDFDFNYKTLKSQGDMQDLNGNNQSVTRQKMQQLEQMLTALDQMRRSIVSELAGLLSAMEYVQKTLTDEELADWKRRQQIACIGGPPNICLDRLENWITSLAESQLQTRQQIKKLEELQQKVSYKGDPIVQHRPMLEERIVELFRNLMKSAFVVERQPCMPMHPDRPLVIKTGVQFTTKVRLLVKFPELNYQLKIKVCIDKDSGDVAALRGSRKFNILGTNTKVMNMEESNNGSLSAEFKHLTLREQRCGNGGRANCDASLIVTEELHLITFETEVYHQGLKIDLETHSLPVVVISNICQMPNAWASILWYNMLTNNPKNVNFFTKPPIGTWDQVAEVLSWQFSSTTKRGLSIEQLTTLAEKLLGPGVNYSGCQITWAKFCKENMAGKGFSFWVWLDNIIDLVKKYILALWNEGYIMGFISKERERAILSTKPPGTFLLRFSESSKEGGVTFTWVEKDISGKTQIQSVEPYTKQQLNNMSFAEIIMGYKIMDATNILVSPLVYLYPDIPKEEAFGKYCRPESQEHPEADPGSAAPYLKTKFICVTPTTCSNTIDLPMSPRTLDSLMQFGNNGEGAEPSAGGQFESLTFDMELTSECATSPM

[7] = target: Signal transducer and activator of transcription 3 (Homo sapiens) (UniProt P40763); test: Inhibition of STAT3 in human SK-OV-3 cells assessed as downregulation of cytoplasmic STAT3 phosphorylation at Ser727 residue at 0.2 uM incubated for 24 hrs by Hoechst33342 staining based immunofluorescence assay; assay type: cell-based
[8] = system: SK-OV-3; test: Induction of cell cycle arrest in human SK-OV-3 cells assessed as accumulation of cells at G0/G1 phase at 0.2 uM incubated for 24 hrs by BrdU staining based flow cytometry (reference value: 59.8 %); assay type: functional
[9] = system: SK-OV-3; test: Induction of cell cycle arrest in human SK-OV-3 cells assessed as accumulation of cells at S phase at 0.8 uM incubated for 24 hrs by BrdU staining based flow cytometry (reference value: 33.6 %); assay type: functional
[10] = system: SK-OV-3; test: Induction of cell cycle arrest in human SK-OV-3 cells assessed as accumulation of cells at G2/M phase at 0.2 uM incubated for 24 hrs by BrdU staining based flow cytometry (reference value: 6.3 %); assay type: functional
[11] = system: A2780; test: Induction of cell cycle arrest in human A2780 cells assessed as accumulation of cells at G0/G1 phase at 0.2 uM incubated for 24 hrs by BrdU staining based flow cytometry (reference value: 42.4 %); assay type: functional
[12] = system: A2780; test: Induction of cell cycle arrest in human A2780 cells assessed as accumulation of cells at G0/G1 phase at 0.4 uM incubated for 24 hrs by BrdU staining based flow cytometry (reference value: 42.4 %); assay type: functional
[13] = system: A2780; test: Induction of cell cycle arrest in human A2780 cells assessed as accumulation of cells at S phase at 0.4 uM incubated for 24 hrs by BrdU staining based flow cytometry (reference value: 51.6 %); assay type: functional
[14] = system: A2780; test: Induction of cell cycle arrest in human A2780 cells assessed as reduction of CDK2 expression at 0.2 uM incubated for 24 hrs by flow cytometry (reference value: 92.5 %); assay type: functional; set-up: scale not given: the % may be the effect or the level left
[15] = system: A2780; test: Induction of cell cycle arrest in human A2780 cells assessed as reduction of CDK2 expression at 0.4 uM incubated for 24 hrs by flow cytometry (reference value: 92.5 %); assay type: functional; set-up: scale not given: the % may be the effect or the level left
[16] = system: A2780; test: Induction of cell cycle arrest in human A2780 cells assessed as reduction of Cyclin D1 expression at 0.8 uM incubated for 24 hrs by flow cytometry (reference value: 92.5 %); assay type: functional; set-up: scale not given: the % may be the effect or the level left
[17] = system: SK-OV-3; test: Induction of apoptosis in human SK-OV-3 cells assessed as necrotic cells at 0.2 uM incubated for 24 hrs by Annexin V-FITC/7-AAD staining based flow cytometry (reference value: 0.6 %); assay type: functional
[18] = system: SK-OV-3; test: Induction of apoptosis in human SK-OV-3 cells assessed as necrotic cells at 0.4 uM incubated for 24 hrs by Annexin V-FITC/7-AAD staining based flow cytometry (reference value: 0.6 %); assay type: functional
[19] = system: A2780; test: Induction of apoptosis in human A2780 cells assessed as viable cells at 0.4 uM incubated for 24 hrs by Annexin V-FITC/7-AAD staining based flow cytometry (reference value: 95 %); assay type: functional; conditions: read-out: Activity
[20] = system: A2780; test: Induction of apoptosis in human A2780 cells assessed as early apoptotic cells at 0.4 uM incubated for 24 hrs by Annexin V-FITC/7-AAD staining based flow cytometry (reference value: 1.9 %); assay type: functional
[21] = system: Mitochondrial membrane; test: Induction of mitochondrial membrane potential loss in human SK-OV-3 cells at 0.2 uM incubated for 24 hrs by JC-1 staining based flow cytometry (reference value: 73.6 %)
[22] = system: Mitochondrial membrane; test: Induction of mitochondrial membrane potential loss in human A2780 cells at 0.2 uM incubated for 24 hrs by JC-1 staining based flow cytometry (reference value: 81 %)
[23] = system: Mitochondrial membrane; test: Induction of mitochondrial membrane potential loss in human A2780 cells at 0.4 uM incubated for 24 hrs by JC-1 staining based flow cytometry (reference value: 81 %)
[24] = system: SK-OV-3; test: Induction of apoptosis in human SK-OV-3 cells assessed as increase in caspase-3 activity at 0.4 uM incubated for 24 hrs by flow cytometry (reference value: 4.6 %); assay type: functional
[25] = system: SK-OV-3; test: Induction of apoptosis in human SK-OV-3 cells assessed as increase in caspase-3 activity at 0.8 uM incubated for 24 hrs by flow cytometry (reference value: 4.6 %); assay type: functional
[26] = system: A2780; test: Induction of apoptosis in human A2780 cells assessed as increase in caspase-3 activity at 0.8 uM incubated for 24 hrs by flow cytometry (reference value: 1.5 %); assay type: functional
[27] = system: SK-OV-3; test: Inhibition of cell invasion in human SK-OV-3 cells incubated for 24 hrs by crystal violet staining based transwell assay; assay type: functional
[28] = system: SK-OV-3; test: Inhibition of cell migration in human SK-OV-3 cells assessed as downregulation of FAK expression at 0.1 to 0.4 uM incubated for 24 hrs by Western blotting analysis; assay type: functional, cell-based; conditions: dose 0.1-0.4 µM
[29] = system: SK-OV-3; test: Antitumor activity against human SK-OV-3 cells xenografted in BALB/c mouse assessed as reduction in tumor volume at 5 mg/kg,ip administrated for 21 consecutive days relative to control; assay type: functional; set-up: scale not given: the % may be the effect or the level left
[30] = system: SK-OV-3; test: Antitumor activity against human SK-OV-3 cells xenografted in BALB/c mouse assessed as reduction in tumor weight at 5 mg/kg,ip administrated for 21 consecutive days; assay type: functional, organism-based
[31] = system: SK-OV-3; test: Antitumor activity against human SK-OV-3 cells xenografted in BALB/c mouse assessed as appearance of shrunken nucleus in tumor tissue at 2 to 5 mg/kg,ip administrated for 21 consecutive days by hematoxylin and eosin staining based assay; assay type: functional, organism-based; conditions: dose 2-5 mg/kg
[32] = Toxicity in BALB/c mouse xenografted with human SK-OV-3 cells assessed as pathological change in lung at 2 to 5 mg/kg,ip administrated for 21 consecutive days by hematoxylin and eosin staining based assay; assay type: organism-based; conditions: in vivo, dose 2-5 mg/kg
[33] = Toxicity in BALB/c mouse xenografted with human SK-OV-3 cells assessed as pathological change in kidney at 2 to 5 mg/kg,ip administrated for 21 consecutive days by hematoxylin and eosin staining based assay; assay type: organism-based; conditions: in vivo, dose 2-5 mg/kg

## CC1=C(O)C(=O)C=C2C1=CC=C1[C@@]2(C)CC[C@@]2(C)[C@@H]3C[C@](C)(C(=O)N4CCNCC4)CC[C@]3(C)CC[C@]12C
[1]
  IC50: 250 nM
[2]
  inhibition: Dose-dependent-effect
[3]
  Activity: Dose-dependent-effect
[4]
  Activity: 2.07%
[5]
  Activity: 1.3%
[6]
  inhibition: Active
[7]
  inhibition: Active; Showed Mild Inhibition Activity
[8]
  Activity: 59.2%
[9]
  Activity: 37.2%
[10]
  Activity: 6.7%
[11]
  Activity: 53.7%
[12]
  Activity: 64.7%
[13]
  Activity: 25.2%
[14]
  Activity: 89.6%
[15]
  Activity: 69.9%
[16]
  Activity: 15%
[17]
  Activity: 0.7%
[18]
  Activity: 0.9%
[19]
  viability at 0.4 µM: 75.3%
[20]
  Activity: 7.4%
[21]
  Activity: 49.6%
[22]
  Activity: 53.2%
[23]
  Activity: 49.5%
[24]
  Activity: 12.6%
[25]
  Activity: 33.8%
[26]
  Activity: 70.7%
[27]
  inhibition: Dose-dependent-effect
[28]
  inhibition: Active
[29]
  Activity: 74.58%
[30]
  Activity: Active; Showed Moderate Reduction Activity
[31]
  Activity: Active
[32]
  Activity: Non-toxic
[33]
  Activity: Non-toxic

— ChEMBL document CHEMBL6083204, “Synthesis of a celastrol derivative as a cancer stem cell inhibitor through regulation of the STAT3 pathway for treatment of ovarian cancer” (RSC Med Chem, 2024)
